From US12448368B2, “Indole compounds as androgen receptor modulators” (NIDO BIOSCIENCES, INC., priority 2020, dated 2025) come the findings set out here.

Usually IC50 stands for the point on the concentration scale where inhibition reaches its midpoint.

SMILES strings stand for the structures. Where only a bound is given, the exact number is not on record here.

In this experiment the target is T1, androgen receptor (AR) (Homo sapiens, UniProt P10275, T878A).
T1 construct: LNCaP cells expressing ARR2PB-FireflyLuc and CMV-RenillaLuc; endogenous in cells; host or cells: LNCaP cells carrying ARR2PB-FireflyLuc and CMV-RenillaLuc reporters
T1 sequence (P10275 1-920 T878A): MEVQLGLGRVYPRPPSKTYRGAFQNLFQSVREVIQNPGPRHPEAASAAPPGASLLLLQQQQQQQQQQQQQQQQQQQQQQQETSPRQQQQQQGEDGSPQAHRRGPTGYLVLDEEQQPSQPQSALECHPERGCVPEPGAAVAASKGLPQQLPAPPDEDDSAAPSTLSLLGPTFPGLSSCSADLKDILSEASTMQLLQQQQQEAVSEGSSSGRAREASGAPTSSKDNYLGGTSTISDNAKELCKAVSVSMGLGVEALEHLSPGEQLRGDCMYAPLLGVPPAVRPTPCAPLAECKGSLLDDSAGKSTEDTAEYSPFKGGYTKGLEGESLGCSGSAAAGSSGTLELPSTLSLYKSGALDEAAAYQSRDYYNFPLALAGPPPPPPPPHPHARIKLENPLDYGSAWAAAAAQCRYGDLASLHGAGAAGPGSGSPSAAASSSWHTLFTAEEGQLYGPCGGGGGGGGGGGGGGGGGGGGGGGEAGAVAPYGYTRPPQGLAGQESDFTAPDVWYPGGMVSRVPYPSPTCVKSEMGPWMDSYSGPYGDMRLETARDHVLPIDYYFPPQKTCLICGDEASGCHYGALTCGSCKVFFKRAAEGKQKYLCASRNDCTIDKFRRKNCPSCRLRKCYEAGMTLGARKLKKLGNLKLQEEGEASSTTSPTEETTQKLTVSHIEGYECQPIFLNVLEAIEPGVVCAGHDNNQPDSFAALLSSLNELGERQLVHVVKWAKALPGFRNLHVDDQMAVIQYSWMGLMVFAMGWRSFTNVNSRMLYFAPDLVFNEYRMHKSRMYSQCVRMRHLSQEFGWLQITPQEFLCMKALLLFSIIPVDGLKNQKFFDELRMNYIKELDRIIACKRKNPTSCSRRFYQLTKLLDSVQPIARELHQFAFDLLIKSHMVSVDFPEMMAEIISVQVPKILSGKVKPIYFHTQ
Briefly: AR reporter assay in LNCaP cells expressing ARR2PB-FireflyLuc and CMV-RenillaLuc, antagonist mode (% remaining activity, IC50). It counts as cell-based. The settings on record: 48 h at 37° C., class symbols A-D, read-out: IC50. Summed up:
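LNCaP cells carrying ARR2PB-firefly and CMV-Renilla luciferase reporters were treated 48 h at 37 °C with compound plus 0.5 nM DHT. Signals were normalised between 0.5 nM DHT alone and 10 uM enzalutamide + DHT to give % remaining activity, and IC50 was obtained by non-linear regression.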
(In general: A reporter such as luciferase makes a cellular process visible.)
Consider `Fc1ccc(-c2c[nH]c3cnccc23)nc1` [Compound 200], for which the IC50 was over 10000 nM. `Fc1ccc(-c2c[nH]c3cccnc23)nc1` [Compound 201]: the IC50 was 1000 to 10000 nM.

Regarding `Fc1ccc(-c2c[nH]c3cc(F)cnc23)nc1` [Compound 202], the IC50 was 100 to 1000 nM. On to `Cc1ccc2c(-c3ccc(F)cc3)c[nH]c2n1` [Compound 203], for which the IC50 was in the range of 1000 to 10000 nM.

As for `N#Cc1cc(F)cc2c(-c3ccc4ccc(F)cc4n3)c[nH]c12` [Compound 204], the IC50 lay in the range of 100 to 1000 nM. For the compound `CC1NC(=O)c2ccc(-c3c[nH]c4c(C#N)cccc34)nc21` (centres unmarked) [Compound 205], the IC50 fell in the range of 100 to 1000 nM. The figure for `CC1(C)NC(=O)c2ccc(-c3c[nH]c4c(C#N)cccc34)nc21` [Compound 206] is 100 to 1000 nM.

`Cc1nc(-c2c[nH]c3c(Cl)cccc23)ccc1N` [Compound 207]: the IC50 lay within 100 to 1000 nM. Turning to `Cc1nc(-c2c[nH]c3c(S(C)(=O)=O)cccc23)ccc1N` [Compound 208], the IC50 was over 10000 nM. `Nc1ccc(-c2c[nH]c3cc(F)c(F)cc23)nc1Cl` [Compound 209]: the IC50 fell in the range of 100 to 1000 nM. As for `Cc1nc(-c2c[nH]c3c(C#N)c(F)ccc23)ccc1N` [Compound 210], the IC50 is under 100 nM.

Regarding `COc1ccc2c(-c3ccc(N)c(C)n3)c[nH]c2c1C#N` [Compound 211], the IC50 is over 10000 nM. In the case of `Cc1cncc(-c2c[nH]c3c(Cl)cccc23)n1` [Compound 212], the IC50 was under 100 nM. For the compound `N#Cc1cccc2c(-c3cncc(N4CCC4)n3)c[nH]c12` [Compound 213], the IC50 was 100 to 1000 nM. Regarding `CCc1nc(-c2c[nH]c3c(C#N)cccc23)cnc1N` [Compound 214], the IC50 lay within 100 to 1000 nM. For `COc1cncc(-c2c[nH]c3c(C#N)cccc23)n1` [Compound 215], the IC50 is under 100 nM.

Regarding `CC1(C)NC(=O)c2ccc(-c3c[nH]c4cc(F)ccc34)nc21` [Compound 216], the IC50 lay within 100 to 1000 nM. With `CN1C(=O)c2ccc(-c3c[nH]c4c(Cl)cccc34)nc2C1(C)C` [Compound 217], the IC50 is 100 to 1000 nM.

Regarding `CC1(C)NC(=O)c2ccc(-c3c[nH]c4c(Cl)cccc34)nc21` [Compound 218], the IC50 fell in the range of 100 to 1000 nM. With `Cc1nc(-c2c[nH]c3c(C#N)cccc23)ccc1NCC(C)(C)O` [Compound 219], the IC50 was in the range of 100 to 1000 nM.

`Cc1nc(-c2c[nH]c3c(C#N)cccc23)ccc1NCCN` [Compound 220]: the IC50 was in the range of 100 to 1000 nM. Turning to `COCC(C)Nc1ccc(-c2c[nH]c3c(C#N)cccc23)nc1C` (centres unmarked) [Compound 221], the IC50 lay within 100 to 1000 nM. Take `N#Cc1cccc2c(-c3cnc(OC4CCNC4)cn3)c[nH]c12` (centres unmarked) [Compound 222]: the IC50 fell in the range of 1000 to 10000 nM. As to `Cc1nc(-c2c[nH]c3c(C#N)cccc23)cnc1OC1CC2CCC1N2` (centres unmarked) [Compound 223], the IC50 fell in the range of 1000 to 10000 nM. Take `Cc1nc(-c2c[nH]c3c(C#N)cccc23)cnc1OC1C2CNCC21` (centres unmarked) [Compound 224]: the IC50 fell in the range of 1000 to 10000 nM. Turning to `Cc1nc(OC2C3CNCC32)cnc1-c1c[nH]c2c(C#N)cccc12` (centres unmarked) [Compound 225], the IC50 was over 10000 nM. With `N#Cc1cccc2c(-c3cnc(NC4CCNC4)c(OC(F)F)n3)c[nH]c12` (centres unmarked) [Compound 226], the IC50 lay within 100 to 1000 nM. The figure for `Cc1nc(-c2c[nH]c3c(C#N)cccc23)cnc1N1CCC(N)C1` (centres unmarked) [Compound 227] is over 10000 nM; for `COCC(COC)Nc1ncc(-c2c[nH]c3c(C#N)cccc23)nc1C` [Compound 228] it is over 10000 nM; for `N#Cc1cccc2c(-c3ccc(OC4CCNC4)c(F)c3)c[nH]c12` (centres unmarked) [Compound 229] it is 100 to 1000 nM. For the compound `Cc1nc(-c2c[nH]c3c(C#N)cccc23)ccc1OC1CCNC1` (centres unmarked) [Compound 230], the IC50 is 100 to 1000 nM. Regarding `Cc1nc(-c2c[nH]c3c(C#N)cccc23)cnc1NC1CCNCC1` [Compound 231], the IC50 was over 10000 nM. With `Cc1nc(-c2c[nH]c3c(C#N)cccc23)cnc1NC1CCCNC1` (centres unmarked) [Compound 232], the IC50 was over 10000 nM. Turning to `Cc1nc(-c2c[nH]c3c(C#N)cccc23)cnc1OC1CCNCC1` [Compound 233], the IC50 was over 10000 nM.

Consider `Cc1nc(-c2c[nH]c3c(C#N)cccc23)cnc1OC1CCCNC1` (centres unmarked) [Compound 234], for which the IC50 is over 10000 nM. To `CC1(C)c2nc(-c3c[nH]c4c(C#N)cccc34)ccc2C(=O)N1CCCO` [Compound 235] belongs over 10000 nM; to `CC1(C)c2nc(-c3c[nH]c4c(C#N)cccc34)ccc2C(=O)N1CCCCO` [Compound 236], over 10000 nM.

Regarding `N#Cc1cccc2c(-c3ccc(OC4CCNC4)c(Cl)n3)c[nH]c12` (centres unmarked) [Compound 237], the IC50 lay in the range of 100 to 1000 nM.

Consider `Cc1nc(-c2c[nH]c3c(Cl)cccc23)ccc1OC1CCNC1` (centres unmarked) [Compound 238], for which the IC50 was 1000 to 10000 nM. Turning to `Cc1nc(-c2c[nH]c3c(C#N)cccc23)cnc1OC1CNC1` [Compound 239], the IC50 fell in the range of 1000 to 10000 nM. The figure for `CC(=O)N1CC(Oc2ncc(-c3c[nH]c4c(C#N)cccc34)nc2C)C1` [Compound 240] is 100 to 1000 nM; for `N#Cc1cccc2c(-c3ccc(OC4CCNC4)c(Cl)c3)c[nH]c12` (centres unmarked) [Compound 241] it is 1000 to 10000 nM; for `N#Cc1cccc2c(-c3cnc(OC4CCNC4)c(OC(F)F)n3)c[nH]c12` (centres unmarked) [Compound 244] it is over 10000 nM. As for `N#Cc1cccc2c(-c3cnc(OC4CCNC4)c(C(F)(F)F)n3)c[nH]c12` (centres unmarked) [Compound 245], the IC50 fell in the range of 1000 to 10000 nM.

For the compound `Cc1nc(-c2c[nH]c3c(C#N)cccc23)cnc1OC[C@H]1[C@@H]2CNC[C@@H]21` [Compound 246], the IC50 fell in the range of 100 to 1000 nM. `Cc1nc(-c2c[nH]c3c(C#N)cccc23)cnc1OC[C@@H]1[C@@H]2CNC[C@@H]21` [Compound 247]: the IC50 fell in the range of 1000 to 10000 nM. With `Cc1nc(-c2coc3c(Cl)cccc23)cnc1N` [Compound 248], the IC50 was in the range of 1000 to 10000 nM. On to `CCc1nc(-c2c[nH]c3c(C#N)cccc23)cnc1OC1CCNC1` (centres unmarked) [Compound 249], for which the IC50 was over 10000 nM. To `COc1nc(-c2c[nH]c3c(C#N)cccc23)cnc1NC1CCNC1` (centres unmarked) [Compound 250] belongs 100 to 1000 nM; to `CCOc1nc(-c2c[nH]c3c(C#N)cccc23)cnc1NC1CCNC1` (centres unmarked) [Compound 251], 1000 to 10000 nM.

In the case of `N#Cc1cccc2c(-c3ccc(OC4CCNC4)c(C(F)(F)F)n3)c[nH]c12` (centres unmarked) [Compound 252], the IC50 lay in the range of 1000 to 10000 nM. To `CCc1nc(-c2c[nH]c3c(Cl)cccc23)cnc1OC1CCNC1` (centres unmarked) [Compound 253] belongs over 10000 nM; to `Fc1cc(-c2c[nH]c3c(Cl)cccc23)ccc1OC1CCNC1` (centres unmarked) [Compound 254], 1000 to 10000 nM. Turning to `Cc1nc(-c2n[nH]c3cc(F)c(F)cc23)ccc1OC1CCNC1` (centres unmarked) [Compound 255], the IC50 lay within 1000 to 10000 nM.

Regarding `Cc1nc(-c2n[nH]c3c(Cl)cccc23)ccc1OC1CCNC1` (centres unmarked) [Compound 256], the IC50 is 1000 to 10000 nM.

Regarding `CC(=O)N1CCC(Oc2ncc(-c3c[nH]c4c(Cl)cccc34)nc2C)C1` (centres unmarked) [Compound 257], the IC50 fell in the range of 100 to 1000 nM. Take `CC(=O)N1CCC(Oc2ncc(-c3c[nH]c4c(C(F)(F)F)cccc34)nc2C)C1` (centres unmarked) [Compound 258]: the IC50 lay in the range of 100 to 1000 nM. Turning to `CC(=O)N1CCC(Oc2ncc(-c3c[nH]c4c(C#N)cccc34)nc2Cl)C1` (centres unmarked) [Compound 259], the IC50 lay within 100 to 1000 nM. For the compound `CC(=O)N1CCC(Oc2ccc(-c3c[nH]c4c(C#N)cccc34)nc2C)C1` (centres unmarked) [Compound 260], the IC50 lay within 100 to 1000 nM.

Consider `CC(=O)N1CCC(Oc2ccc(-c3c[nH]c4c(C#N)cccc34)nc2Cl)C1` (centres unmarked) [Compound 261], for which the IC50 was in the range of 100 to 1000 nM.

Consider `CC(=O)N1CCC(Oc2ccc(-c3c[nH]c4c(C#N)cccc34)nc2C(F)(F)F)C1` (centres unmarked) [Compound 262], for which the IC50 was in the range of 100 to 1000 nM. For the compound `CC(=O)N(C)CCOc1ncc(-c2c[nH]c3c(Cl)cccc23)nc1C` [Compound 263], the IC50 fell in the range of 100 to 1000 nM. On to `CC1(C)NC(=O)c2ccc(-c3c[nH]c4c(C#N)cccc34)cc21` [Compound 264], for which the IC50 was in the range of 100 to 1000 nM. The figure for `COc1nc(-c2c[nH]c3c(C#N)cccc23)cnc1NC1CCN(C(C)=O)C1` (centres unmarked) [Compound 265] is under 100 nM; for `CC1(CO)NC(=O)c2ccc(-c3c[nH]c4c(C#N)cccc34)nc21` (centres unmarked) [Compound 266] it is over 10000 nM. Regarding `CCc1nc(-c2c[nH]c3c(C#N)cccc23)cnc1OCCN` [Compound 267], the half-maximal inhibitory concentration (IC50) is over 10000 nM. `CCc1nc(-c2c[nH]c3c(C#N)cccc23)cnc1OC1CCN(C(C)=O)C1` (centres unmarked) [Compound 268]: the IC50 was in the range of 100 to 1000 nM. Turning to `CC(=O)N1CCC(Oc2ncc(-c3c[nH]c4c(C#N)cccc34)nc2C(F)(F)F)C1` (centres unmarked) [Compound 269], the IC50 was 100 to 1000 nM.
